From ChEMBL document CHEMBL5625159, “Challenges for the development of mutant isocitrate dehydrogenases 1 inhibitors to treat glioma” (Eur J Med Chem, 2023)
Values belong to the molecule of their own block, whether it stands above or below them.

Legend:
[1] = test system: HT-1080; test: Antiproliferative activity against human HT-1080 cells assessed as cell growth inhibition incubated for 48 hrs by sulforhodamine B assay; format: functional, cell-based; settings: HT-1080, 48 h
[2] = target: T1, Isocitrate dehydrogenase [NADP], mitochondrial (Homo sapiens, UniProt P48735); test: Inhibition of wildtype IDH2 (unknown origin)
T1 sequence (P48735 whole entry): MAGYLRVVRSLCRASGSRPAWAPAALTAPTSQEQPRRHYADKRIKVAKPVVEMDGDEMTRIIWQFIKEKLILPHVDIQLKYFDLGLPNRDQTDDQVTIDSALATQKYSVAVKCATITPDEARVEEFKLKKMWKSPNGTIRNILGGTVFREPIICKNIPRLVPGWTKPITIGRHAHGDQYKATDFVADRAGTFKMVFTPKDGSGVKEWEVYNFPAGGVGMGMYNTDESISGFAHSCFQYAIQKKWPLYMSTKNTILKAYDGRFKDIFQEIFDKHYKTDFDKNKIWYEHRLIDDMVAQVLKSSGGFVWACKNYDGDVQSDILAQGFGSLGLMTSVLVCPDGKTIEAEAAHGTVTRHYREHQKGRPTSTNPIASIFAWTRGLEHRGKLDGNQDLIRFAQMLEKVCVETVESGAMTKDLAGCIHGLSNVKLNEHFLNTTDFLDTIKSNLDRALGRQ

[3] = test system: HT-1080; test: Antiproliferative activity against human HT-1080 cells harboring IDH1 […] mutant measured after 72 hrs by MTT assay; format: functional, cell-based; settings: HT-1080, 72 h
[4] = test system: U-87 MG; test: Antiproliferative activity against human U-87 MG cells harboring IDH1 R132H mutant measured after 72 hrs by MTT assay; format: functional, cell-based, U-87MG ATCC
[5] = test system: U-87 MG; test: Antiproliferative activity against human U-87 MG cells assessed as reduction in cell growth by CCK-8 assay; format: functional, cell-based, U-87MG ATCC
[6] = target: T2, Isocitrate dehydrogenase [NADP] cytoplasmic (Homo sapiens, UniProt O75874, R132H); test: Inhibition of wildtype human recombinant IDH1 R132H mutant heterodimer in presence of alpha-ketoglutarate and NADPH by fluorescence based biochemical assay
[7] = target: T3, Isocitrate dehydrogenase [NADP] cytoplasmic (Homo sapiens, UniProt O75874, R132C); test: Inhibition of human N-terminal 6His-tagged IDH1 R132C mutant expressed in Escherichia coli Rosetta2 (DE3) in presence of alpha-ketoglutarate and NADPH by fluorescence based biochemical assay
[8] = target: T2, Isocitrate dehydrogenase [NADP] cytoplasmic; test: Inhibition of human recombinant IDH1 R132H mutant expressed in Escherichia coli BL21 (DE3) cells in presence of alpha-ketoglutarate and NADPH by fluorescence based biochemical assay
[9] = target: T4, Isocitrate dehydrogenase [NADP] cytoplasmic (Homo sapiens, UniProt O75874); test: Inhibition of N-terminal His-tagged wild type IDH1 (unknown origin)
[10] = target: T2, Isocitrate dehydrogenase [NADP] cytoplasmic; test: Inhibition of N-terminal 6xHis-tagged IDH1 R132H mutant (unknown origin) expressed in Escherichia coli BL21 cells
[11] = target: T3, Isocitrate dehydrogenase [NADP] cytoplasmic; test: Inhibition of IDH1 R132C mutant (unknown origin) expressed in HEK293T cells assessed as inhibition of 2-HG generation measured after 48 hrs by LC-MS/MS analysis; format: cell-based
[12] = target: T2, Isocitrate dehydrogenase [NADP] cytoplasmic; test: Inhibition of IDH1 R132H mutant (unknown origin) expressed in HEK293T cells assessed as inhibition of 2-HG generation measured after 48 hrs by LC-MS/MS analysis; format: cell-based
[13] = target: T4, Isocitrate dehydrogenase [NADP] cytoplasmic; test: Inhibition of wild type IDH1 (unknown origin)
[14] = target: T2, Isocitrate dehydrogenase [NADP] cytoplasmic; test: Binding affinity to human recombinant IDH1 R132H mutant expressed in Escherichia coli BL21 (DE3) cells assessed as inhibition constant
[15] = target: T3, Isocitrate dehydrogenase [NADP] cytoplasmic; test: Inhibition of C-terminal Hexahistidine-tagged human recombinant IDH1 R132C mutant expressed in Escherichia coli BL21 (DE3) cells assessed as NADPH consumption in presence of alpha KG incubated for 1 hr by MST assay
[16] = target: T2, Isocitrate dehydrogenase [NADP] cytoplasmic; test: Inhibition of C-terminal Hexahistidine-tagged human recombinant IDH1 R132H mutant expressed in Escherichia coli BL21 (DE3) cells assessed as NADPH consumption in presence of alpha KG incubated for 1 hr by MST assay
[17] = test system: TF-1; test: Anticancer activity against human TF-1 cells assessed as cell growth inhibition; format: functional, cell-based
[18] = target: T2, Isocitrate dehydrogenase [NADP] cytoplasmic; test: Inhibition of human IDH1 R132H mutant
[19] = target: T2, Isocitrate dehydrogenase [NADP] cytoplasmic; test: Inhibition of human […] IDH1 R132H mutant expressed in Escherichia coli BL21 (DE3) cells incubated for 60 mins by fluorescence based analysis
[20] = target: T4, Isocitrate dehydrogenase [NADP] cytoplasmic; test: Inhibition of human recombinant wildtype IDH1
[21] = target: T3, Isocitrate dehydrogenase [NADP] cytoplasmic; test: Inhibition of IDH1 R132C mutant (unknown origin) expressed in Escherichia coli BL21 (DE3) cells
[22] = Selectivity index, ratio of IC50 for inhibition of wildtype IDH2 (unknown origin) to IC50 for inhibition of IDH2 R140Q mutant (unknown origin)
[23] = target: T3, Isocitrate dehydrogenase [NADP] cytoplasmic; test: Inhibition of human […] IDH1 R132C mutant expressed in Escherichia coli BL21 (DE3) cells incubated for 60 mins by fluorescence based analysis
[24] = Brain to plasma ratio in mouse at 50 mg/kg, iv; format: ADME, organism-based; settings: brain and plasma, read-out: BPR
[25] = target: Isocitrate dehydrogenase [NADP], mitochondrial (Homo sapiens, UniProt P48735, R140Q); test: Inhibition of IDH2 R140Q mutant (unknown origin) in the presence of NADPH by fluorescence based analysis
[26] = target: T4, Isocitrate dehydrogenase [NADP] cytoplasmic; test: Inhibition of IDH1 (unknown origin) expressed in Escherichia coli BL21 (DE3) cells using 2OG as substrate preincubated with compound for 2 hrs followed by substrate addition and measured after 1 hrs by spectrophotometric analysis

T2 sequence (O75874 2-414 R132H limits assumed): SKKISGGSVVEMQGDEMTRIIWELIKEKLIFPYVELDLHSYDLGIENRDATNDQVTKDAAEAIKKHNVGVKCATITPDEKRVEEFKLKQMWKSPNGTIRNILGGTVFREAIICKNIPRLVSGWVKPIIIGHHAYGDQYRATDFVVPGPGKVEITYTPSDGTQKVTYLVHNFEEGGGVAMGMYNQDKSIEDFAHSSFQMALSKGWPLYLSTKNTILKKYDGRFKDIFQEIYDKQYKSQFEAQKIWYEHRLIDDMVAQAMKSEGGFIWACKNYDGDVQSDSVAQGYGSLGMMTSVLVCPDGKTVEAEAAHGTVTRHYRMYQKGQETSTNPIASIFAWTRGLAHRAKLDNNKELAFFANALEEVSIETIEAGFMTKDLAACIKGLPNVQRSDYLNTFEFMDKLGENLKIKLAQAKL
T3 sequence (O75874 2-414 R132C limits assumed): as the sequence (O75874 2-414 R132H limits assumed) above, with H131C counted along it
T4 sequence (O75874 whole entry): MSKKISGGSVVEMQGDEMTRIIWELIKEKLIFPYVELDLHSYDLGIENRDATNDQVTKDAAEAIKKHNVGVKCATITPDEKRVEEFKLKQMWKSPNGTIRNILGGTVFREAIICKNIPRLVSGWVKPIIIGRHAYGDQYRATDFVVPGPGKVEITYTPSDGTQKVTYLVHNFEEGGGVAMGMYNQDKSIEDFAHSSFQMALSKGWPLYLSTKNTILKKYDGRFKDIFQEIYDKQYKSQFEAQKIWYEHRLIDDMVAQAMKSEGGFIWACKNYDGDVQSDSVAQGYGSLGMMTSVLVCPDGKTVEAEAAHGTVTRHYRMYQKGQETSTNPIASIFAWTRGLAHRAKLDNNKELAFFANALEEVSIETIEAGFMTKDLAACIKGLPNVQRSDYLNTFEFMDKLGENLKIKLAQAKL
Isocitrate dehydrogenase [NADP], mitochondrial (Homo sapiens, UniProt P48735, R140Q), sequence (P48735 40-452 R140Q limits assumed): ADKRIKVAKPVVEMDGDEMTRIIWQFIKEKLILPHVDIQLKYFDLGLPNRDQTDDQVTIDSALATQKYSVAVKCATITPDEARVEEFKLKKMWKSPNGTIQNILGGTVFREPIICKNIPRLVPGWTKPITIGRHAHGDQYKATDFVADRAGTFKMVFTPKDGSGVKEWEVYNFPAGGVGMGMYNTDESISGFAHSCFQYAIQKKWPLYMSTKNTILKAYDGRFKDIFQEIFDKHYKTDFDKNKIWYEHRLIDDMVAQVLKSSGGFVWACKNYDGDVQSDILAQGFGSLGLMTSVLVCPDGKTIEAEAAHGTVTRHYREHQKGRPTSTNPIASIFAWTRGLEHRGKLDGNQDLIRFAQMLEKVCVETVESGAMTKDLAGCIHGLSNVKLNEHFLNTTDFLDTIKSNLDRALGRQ

IC50 [1]: 8 nM
IC50 [2]: 7200 nM
IC50 [3]: 8 nM
IC50 [4]: 19 nM
IC50 [5]: 19 nM
Structure (SMILES): N#Cc1ccnc(N2C(=O)CC[C@H]2C(=O)N(c2cncc(F)c2)[C@H](C(=O)NC2CC(F)(F)C2)c2ccccc2Cl)c1 [IVOSIDENIB]

IC50 [6]: 16.6 nM
IC50 [7]: 8.8 nM
IC50 [8]: 15.2 nM
IC50 [9]: 467 nM
Structure (SMILES): COc1c(C)cc(NC(=O)c2nn(Cc3ccc(F)cc3)c3c2CN(C(=O)c2ccc[nH]2)C[C@@H]3C(N)=O)cc1C

IC50 [10]: 677 nM
Structure (SMILES): CC(C)(O)CNc1nc(Nc2ccnc(C(F)(F)F)c2)nc(-c2cccc(C(F)(F)F)n2)n1 [ENASIDENIB]

IC50 [11]: 65400 nM
IC50 [12]: 55500 nM
Structure (SMILES): COC(=O)C1CCC2=C(C1=O)C(c1c[nH]c3ccccc13)Nc1ccccc1N2 (configuration not stated)

IC50 [13]: > 100000 nM
Ki [14]: 76900 nM
Structure (SMILES): C=CC(C)(C)c1cc(/C=C/C(=O)c2ccc(O)cc2)c(OC)cc1O [LICOAGROCHACONE A]

IC50 [15]: 42300 nM
IC50 [16]: 50200 nM
Structure (SMILES): CCN(CC)CCOc1ccc(/C(=C(\Cl)c2ccccc2)c2ccccc2)cc1 [ZUCLOMIPHENE]

IC50 [2]: > 10000 nM
IC50 [18]: 8.4 nM
IC50 [19]: 8.4 nM
IC50 [20]: 180 nM
IC50 [21]: 11 nM
Ratio IC50 [22]: < 0.001
IC50 [23]: 11 nM
Kp [24]: 0.4
IC50 [25]: > 10000 nM
IC50 [26]: > 10000 nM
Structure (SMILES): Cc1cn(C(=O)c2c(-c3c(Cl)cc(Cl)cc3Cl)noc2C(C)(C)F)c2cccc(/C=C/C(=O)O)c12 [SAFUSIDENIB]
IC50 [17]: 29 nM
